Measured values reported in the supplement of paper PMC11061612.

Tests used:
[1] = tested on: SIMA (Neuroblastoma); assay: combination Emax (second highest fraction inhibited in the dose matrix, 72 h); higher = more inhibition; extreme values may be limits of the assay
Method in brief: (§1)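 Cell lines in DMEM/F12 or RPMI with 10% FBS were plated in 1536-well plates, held 24 hours at 37°C, 5% CO2, then given two-drug dose matrices for 72 hours (DMSO typically 0.2%). Viability was read by CellTiter-Glo 2.0 luminescence and scaled as inhibition from 0 (vehicle wells) to 1 (blank wells). Combination Emax is the second-highest inhibition in the matrix; Bliss excess is observed combination effect minus expected EA + EB − EA·EB, EA and EB being single-agent effects.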

[2] = tested on: TE-4 (Esophageal Squamous Cell Carcinoma); assay: Bliss excess, mean over the matrix (fraction); higher = more synergy
Method in brief: as §1

[3] = tested on: SU-DHL-6 (B-Cell Non-Hodgkin's Lymphoma); assay: as above
Method in brief: as §1

[4] = tested on: HCC-15 (Squamous Cell Lung Carcinoma); assay: as above
Method in brief: as §1

[5] = tested on: MHH-PREB-1 (B-Cell Non-Hodgkin's Lymphoma); assay: as above
Method in brief: as §1

[6] = tested on: OC-314 (Ovarian Carcinoma); assay: as above
Method in brief: as §1

[7] = tested on: SIMA (Neuroblastoma); assay: as above
Method in brief: as §1

[8] = tested on: SW1116 (Colorectal Carcinoma); assay: as above
Method in brief: as §1

[9] = tested on: SW626 (Colorectal Carcinoma); assay: as above
Method in brief: as §1

[10] = tested on: NCI-H747 (Colorectal Carcinoma); assay: as above
Method in brief: as §1
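Wherever Bliss excess, mean over the matrix is given: after 72 h of two-drug dosing.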

SMILES	combination Emax [1]	Bliss excess [2]	Bliss excess [3]	Bliss excess [4]	Bliss excess [5]	Bliss excess [6]	Bliss excess [7]	Bliss excess [8]	Bliss excess [9]	Bliss excess [10]
C=CCn1c(=O)c2cnc(Nc3ccc(N4CCN(C)CC4)cc3)nc2n1-c1cccc(C(C)(C)O)n1 [AZD1775] + C1CN(CCC1(C(=O)N[C@@H](CCO)C2=CC=C(C=C2)Cl)N)C3=NC=NC4=C3C=CN4 [Capivasertib] (first compound max 3 µM, partner max 3 µM)	0.94	-0.045	0.0012	-0.0331	-0.005	-0.0158	-0.0416	-0.0561	-0.0606	-0.0485
CN(C)CCCOc1ccc(-c2ccc3ncc4c(c3c2)n(C2CCOCC2)c(=O)n4C)cn1 [AZD0156] + O=C(c1cc(Cc2n[nH]c(=O)c3ccccc23)ccc1F)N1CCN(C(=O)C2CC2)CC1 [Olaparib] (first compound max 3 µM, partner max 3 µM)	0.386	0.0387	0.125	0.136	0.0175	0.145	0.0694	-0.0431	-0.0326	-0.0461
Cc1c2c(nn1C)CSCc1cc(n(C)n1)CSc1cc(c3ccccc3c1)OCCCc1c(C(=O)O)n(C)c3c-2c(Cl)ccc13 [AZD5991] + CCN(CCO)CCCOc1ccc2c(Nc3cc(CC(=O)Nc4cccc(F)c4)[nH]n3)ncnc2c1 [AZD2811] (first compound max 1 µM, 7x7, partner max 1 µM)	0.768	0.063	0.0379	-0.0144	0.0147	0.0457	-0.0271	-0.003	0.0141	-0.0133
CN(CCO)CC[C@H](CSc1ccccc1)Nc1ccc(S(=O)(=O)NC(=O)c2ccc(N3CCC([C@@H](O)c4ccccc4-c4ccc(Cl)cc4)CC3)cc2)cc1S(=O)(=O)C(F)(F)F [AZD4320] + C=CCn1c(=O)c2cnc(Nc3ccc(N4CCN(C)CC4)cc3)nc2n1-c1cccc(C(C)(C)O)n1 [AZD1775] (first compound max 1 µM, partner max 1 µM)	1	-0.0044	0.14	0.0202	-0.0454	-0.0187	-0.0156	0.0003	-0.0124	-0.0238
Cc1c2c(nn1C)CSCc1cc(n(C)n1)CSc1cc(c3ccccc3c1)OCCCc1c(C(=O)O)n(C)c3c-2c(Cl)ccc13 [AZD5991] + C[C@@H](Nc1cc(F)cc(F)c1)c1cc(C(=O)N(C)C)cc2c(=O)cc(N3CCOCC3)oc12 [AZD8186] (first compound max 1 µM, 7x7, partner max 3 µM)	0.218	0.0492	-0.002	-0.0047	-0.0069	-0.0029	-0.0084	0.0046	-0.0268	-0.0421
Cc1c2c(nn1C)CSCc1cc(n(C)n1)CSc1cc(c3ccccc3c1)OCCCc1c(C(=O)O)n(C)c3c-2c(Cl)ccc13 [AZD5991] + C1CN(CCC1(C(=O)N[C@@H](CCO)C2=CC=C(C=C2)Cl)N)C3=NC=NC4=C3C=CN4 [Capivasertib] (first compound max 1 µM, 7x7, partner max 3 µM)	0.176	0.0626	-0.0035	0.0441	-0.0283	0.0362	-0.0195	-0.0238	-0.018	0.0106
Cc1c2c(nn1C)CSCc1cc(n(C)n1)CSc1cc(c3ccccc3c1)OCCCc1c(C(=O)O)n(C)c3c-2c(Cl)ccc13 [AZD5991] + Cc1cc2ncnn2cc1Nc1ncc2c(n1)n(C1CCOCC1)c(=O)n2C [AZD7648] (first compound max 1 µM, 7x7, partner max 10 µM)	0.543	-0.025	0.0224	-0.0436	-0.0029	0.0063		-0.0466	-0.0069	-0.0703
CC(=O)c1c(C)c2cnc(Nc3ccc(N4CCNCC4)cn3)nc2n(C2CCCC2)c1=O [Palbociclib] + CC1(C)CCC(CN2CCN(c3ccc(C(=O)NS(=O)(=O)c4ccc(NCC5CCOCC5)c([N+](=O)[O-])c4)c(Oc4cnc5[nH]ccc5c4)c3)CC2)=C(c2ccc(Cl)cc2)C1 [Venetoclax] (first compound max 10 µM, 7x7, partner max 1 µM)		-0.0113	0.0694	-0.0364	-0.0187	-0.0526		-0.0435	-0.0152	0.017
Cn1cnc2c(F)c(Nc3ccc(Br)cc3Cl)c(C(=O)NOCCO)cc21 [Selumetinib] + CC(C)n1c(=O)n(C)c2cnc3cc(F)c(-c4ccc(OCCCN5CCCCC5)nc4)cc3c21 [AZD1390] (first compound max 10 µM, 7x7, partner max 0.3 µM)		-0.0461	-0.0323	0.0148	-0.0218	-0.0357		-0.0094	-0.0121	-0.0334
COc1nnc2ccc(N3CCC(c4ccc(OCCN5CCN(C)C(=O)[C@H]5C)cc4)CC3)nn12 [AZD5153] + C=CCn1c(=O)c2cnc(Nc3ccc(N4CCN(C)CC4)cc3)nc2n1-c1cccc(C(C)(C)O)n1 [AZD1775] (first compound max 1 µM, partner max 1 µM)		-0.0199	-0.0656	-0.0356	0.007	0.0105		-0.0506	0.0045	-0.0633
COc1nnc2ccc(N3CCC(c4ccc(OCCN5CCN(C)C(=O)[C@H]5C)cc4)CC3)nn12 [AZD5153] + CC1(C)CCC(CN2CCN(c3ccc(C(=O)NS(=O)(=O)c4ccc(NCC5CCOCC5)c([N+](=O)[O-])c4)c(Oc4cnc5[nH]ccc5c4)c3)CC2)=C(c2ccc(Cl)cc2)C1 [Venetoclax] (first compound max 1 µM, 7x7, partner max 1 µM)		-0.0291	0.0401	-0.0255	-0.055	-0.0149		-0.036	-0.0676	-0.0522
CC1(C)CCC(CN2CCN(c3ccc(C(=O)NS(=O)(=O)c4ccc(NCC5CCOCC5)c([N+](=O)[O-])c4)c(Oc4cnc5[nH]ccc5c4)c3)CC2)=C(c2ccc(Cl)cc2)C1 [Venetoclax] + Cc1cc2ncnn2cc1Nc1ncc2c(n1)n(C1CCOCC1)c(=O)n2C [AZD7648] (first compound max 1 µM, 7x7, partner max 10 µM)		-0.0106	0.049	-0.0033	0.0028	-0.0115		-0.0232	-0.0098	-0.0124
CN(CCO)CC[C@H](CSc1ccccc1)Nc1ccc(S(=O)(=O)NC(=O)c2ccc(N3CCC([C@@H](O)c4ccccc4-c4ccc(Cl)cc4)CC3)cc2)cc1S(=O)(=O)C(F)(F)F [AZD4320] + CN(C)CCCOc1ccc(-c2ccc3ncc4c(c3c2)n(C2CCOCC2)c(=O)n4C)cn1 [AZD0156] (first compound max 1 µM, 7x7, partner max 1 µM)	0.848	-0.0285		-0.0137	0.0075	-0.0231	-0.14	-0.069	-0.0545	-0.0546
CC1(C)CCC(CN2CCN(c3ccc(C(=O)NS(=O)(=O)c4ccc(NCC5CCOCC5)c([N+](=O)[O-])c4)c(Oc4cnc5[nH]ccc5c4)c3)CC2)=C(c2ccc(Cl)cc2)C1 [Venetoclax] + C[C@@H]1COCCN1C2=NC(=NC(=C2)C3(CC3)[S@](=N)(=O)C)C4=C5C=CNC5=NC=C4 [AZD6738] (first compound max 1 µM, 7x7, partner max 10 µM)		-0.0337	0.0561	-0.0296	0.0046	-0.003		-0.0234	-0.0492	-0.0621
C[C@@H](c1ccc2nccn2c1)n1nnc2ncc(-c3cnn(C)c3)nc21 [Savolitinib] + Cc1c2c(nn1C)CSCc1cc(n(C)n1)CSc1cc(c3ccccc3c1)OCCCc1c(C(=O)O)n(C)c3c-2c(Cl)ccc13 [AZD5991] (first compound max 1 µM, 7x7, partner max 1 µM)		-0.0289	-0.013	-0.0349	-0.0375	-0.018		-0.0252	0.0147	-0.0465
NC1(C(=O)N[C@@H](CCO)c2ccc(Cl)cc2)CCN(c2ncnc3[nH]ccc23)CC1 [Capivasertib] + COc1nnc2ccc(N3CCC(c4ccc(OCCN5CCN(C)C(=O)[C@H]5C)cc4)CC3)nn12 [AZD5153] (first compound max 10 µM, 7x7, partner max 1 µM)		0.0684	-0.0424	0.009	-0.0154	-0.0135		-0.0236	-0.0156	-0.042
COc1cc2ncnc(Nc3ccc(F)c(Cl)c3)c2cc1OCCCN1CCOCC1 [Gefitinib] + CC(C)n1c(=O)n(C)c2cnc3cc(F)c(-c4ccc(OCCCN5CCCCC5)nc4)cc3c21 [AZD1390] (first compound max 10 µM, 7x7, partner max 0.3 µM)		-0.0286	0.0167	-0.0442	-0.0748	-0.0314		-0.0835	-0.0777	-0.0986
CC1(C)CCC(CN2CCN(c3ccc(C(=O)NS(=O)(=O)c4ccc(NCC5CCOCC5)c([N+](=O)[O-])c4)c(Oc4cnc5[nH]ccc5c4)c3)CC2)=C(c2ccc(Cl)cc2)C1 [Venetoclax] + C1CN(CCC1(C(=O)N[C@@H](CCO)C2=CC=C(C=C2)Cl)N)C3=NC=NC4=C3C=CN4 [Capivasertib] (first compound max 1 µM, 7x7, partner max 3 µM)		-0.0421	0.0537	-0.0286	-0.0398	-0.0017		-0.0491	-0.018	-0.0537
CC1(C)CCC(CN2CCN(c3ccc(C(=O)NS(=O)(=O)c4ccc(NCC5CCOCC5)c([N+](=O)[O-])c4)c(Oc4cnc5[nH]ccc5c4)c3)CC2)=C(c2ccc(Cl)cc2)C1 [Venetoclax] + COc1cc(Nc2ncc3c(n2)-c2ccc(Cl)cc2C(c2c(F)cccc2OC)=NC3)ccc1C(=O)O [Alisertib] (first compound max 1 µM, 7x7, partner max 10 µM)		-0.034	0.121	-0.0104	-0.03	0.0244		0.0127	-0.0167	0.0071
NC1(C(=O)N[C@@H](CCO)c2ccc(Cl)cc2)CCN(c2ncnc3[nH]ccc23)CC1 [Capivasertib] + CC(C)n1c(=O)n(C)c2cnc3cc(F)c(-c4ccc(OCCCN5CCCCC5)nc4)cc3c21 [AZD1390] (first compound max 10 µM, 7x7, partner max 0.3 µM)		-0.0233	-0.0071	-0.0608	-0.0353	-0.0412		-0.0335	-0.0828	-0.0791
